According to patent US12011439B2, “Combination therapy using C—C chemokine receptor 4 (CCR4) antagonists and one or more immune checkpoint inhibitors” (CHEMOCENTRYX, INC., priority 2018, dated 2024):

Columns and labels:
CCR4 [1] = target: T1, CCR4 (Homo sapiens, UniProt P51679); experiment: Compound 1 selectivity panel, buffer IC50; format: cell-based
T1 sequence (P51679 1-360): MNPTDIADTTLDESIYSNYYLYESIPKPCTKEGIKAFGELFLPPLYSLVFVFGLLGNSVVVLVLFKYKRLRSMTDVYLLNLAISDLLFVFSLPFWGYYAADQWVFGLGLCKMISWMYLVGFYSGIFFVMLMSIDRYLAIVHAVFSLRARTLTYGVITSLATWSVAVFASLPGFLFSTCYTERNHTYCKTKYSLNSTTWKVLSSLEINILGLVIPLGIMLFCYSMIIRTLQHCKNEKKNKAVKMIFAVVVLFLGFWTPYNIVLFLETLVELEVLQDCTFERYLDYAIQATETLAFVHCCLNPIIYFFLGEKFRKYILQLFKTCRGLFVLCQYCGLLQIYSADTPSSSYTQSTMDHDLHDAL
Description: (§1) The selectivity of Compound 1 was tested by determining the IC50 value against a diverse panel of receptors, enzymes, and ion channels. […] See, Table 1.

CCR5 = CCR5 (Homo sapiens, UniProt P51681); experiment: Compound 1 selectivity panel, buffer IC50; format: cell-based; conditions: Receptor CCR5
Description: as §1

CCR2 = CCR2 (Homo sapiens, UniProt P41597); experiment: Compound 1 selectivity panel, buffer IC50; format: cell-based; conditions: Receptor CCR2
Description: as §1

CCR9 = target: T2, CCR9 (Homo sapiens, UniProt P51686); experiment: Compound 1 selectivity panel, buffer IC50; format: cell-based; conditions: Receptor CCR9
T2 sequence (P51686 1-369): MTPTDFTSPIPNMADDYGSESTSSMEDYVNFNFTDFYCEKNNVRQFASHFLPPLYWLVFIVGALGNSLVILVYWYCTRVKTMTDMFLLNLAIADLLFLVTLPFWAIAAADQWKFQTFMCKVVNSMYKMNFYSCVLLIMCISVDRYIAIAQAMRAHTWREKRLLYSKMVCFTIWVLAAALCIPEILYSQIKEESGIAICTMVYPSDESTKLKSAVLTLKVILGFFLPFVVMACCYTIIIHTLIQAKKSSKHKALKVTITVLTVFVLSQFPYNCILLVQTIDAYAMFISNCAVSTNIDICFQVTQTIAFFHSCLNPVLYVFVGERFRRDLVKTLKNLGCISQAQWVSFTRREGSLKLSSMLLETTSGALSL
Description: as §1

CCR8 = CCR8 (Homo sapiens, UniProt P51685); experiment: Compound 1 selectivity panel, buffer IC50; format: cell-based; conditions: Receptor CCR8
Description: as §1

[2] = Compound 1 selectivity panel, buffer IC50; format: cell-based; conditions: Receptor CCR12
Description: as §1

CCR10 = target: T3, CCR10 (Homo sapiens, UniProt P46092); experiment: Compound 1 selectivity panel, buffer IC50; format: cell-based; conditions: Receptor CCR10
T3 sequence (P46092 1-362): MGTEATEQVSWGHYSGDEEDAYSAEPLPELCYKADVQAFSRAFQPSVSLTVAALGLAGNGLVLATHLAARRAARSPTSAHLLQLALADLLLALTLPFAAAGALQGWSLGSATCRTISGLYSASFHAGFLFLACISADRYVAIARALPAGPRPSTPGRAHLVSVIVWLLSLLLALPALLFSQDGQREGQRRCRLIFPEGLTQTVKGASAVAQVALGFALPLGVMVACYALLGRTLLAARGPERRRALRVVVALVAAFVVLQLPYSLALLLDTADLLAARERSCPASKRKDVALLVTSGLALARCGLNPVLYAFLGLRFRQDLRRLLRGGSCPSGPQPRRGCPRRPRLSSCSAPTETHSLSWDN
Description: as §1

CCR6 = target: T4, CCR6 (Homo sapiens, UniProt P51684); experiment: Compound 1 selectivity panel, buffer IC50; format: cell-based; conditions: Receptor CCR6
T4 sequence (P51684 1-374): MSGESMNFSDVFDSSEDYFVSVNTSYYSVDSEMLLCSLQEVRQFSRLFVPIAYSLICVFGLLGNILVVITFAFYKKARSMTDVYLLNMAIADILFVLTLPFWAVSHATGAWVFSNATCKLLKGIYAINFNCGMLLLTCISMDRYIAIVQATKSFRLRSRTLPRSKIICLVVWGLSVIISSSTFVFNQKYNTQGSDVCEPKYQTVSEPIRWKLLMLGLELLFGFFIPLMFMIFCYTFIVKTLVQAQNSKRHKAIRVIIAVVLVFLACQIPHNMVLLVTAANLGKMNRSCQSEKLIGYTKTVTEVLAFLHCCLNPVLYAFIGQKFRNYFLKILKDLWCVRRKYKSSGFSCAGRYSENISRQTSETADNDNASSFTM
Description: as §1

CXCR2 = target: T5, CXCR2 (Homo sapiens, UniProt P25025); experiment: Compound 1 selectivity panel, buffer IC50; format: cell-based; conditions: Receptor CXCR2
T5 sequence (P25025 1-360): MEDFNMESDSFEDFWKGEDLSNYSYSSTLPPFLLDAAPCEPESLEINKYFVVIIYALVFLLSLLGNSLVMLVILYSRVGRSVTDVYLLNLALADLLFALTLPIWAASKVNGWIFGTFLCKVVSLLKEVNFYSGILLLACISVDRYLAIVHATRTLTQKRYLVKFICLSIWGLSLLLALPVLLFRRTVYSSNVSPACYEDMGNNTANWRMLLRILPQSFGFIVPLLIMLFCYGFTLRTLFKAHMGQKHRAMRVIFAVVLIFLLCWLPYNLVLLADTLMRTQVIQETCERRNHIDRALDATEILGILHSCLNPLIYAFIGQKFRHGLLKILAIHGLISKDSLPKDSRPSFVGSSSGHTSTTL
Description: as §1

mCCR4 = target: T6, mCCR4 (Mus musculus, UniProt P51680); experiment: CCL22 chemotaxis, mouse CCR4 cells; format: cell-based; conditions: Mouse mCCR4-Baf3 cells
T6 sequence (P51680 1-360): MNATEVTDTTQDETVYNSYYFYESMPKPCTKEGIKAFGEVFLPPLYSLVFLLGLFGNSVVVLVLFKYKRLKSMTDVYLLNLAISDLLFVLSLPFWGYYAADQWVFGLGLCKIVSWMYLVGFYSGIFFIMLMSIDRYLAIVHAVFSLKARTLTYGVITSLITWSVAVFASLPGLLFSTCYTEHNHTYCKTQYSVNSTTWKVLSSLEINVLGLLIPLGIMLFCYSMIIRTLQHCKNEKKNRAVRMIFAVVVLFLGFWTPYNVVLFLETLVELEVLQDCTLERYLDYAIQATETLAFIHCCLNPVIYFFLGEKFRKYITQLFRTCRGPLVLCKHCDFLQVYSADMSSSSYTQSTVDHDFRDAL

CCR4 [3] = target: T1, CCR4; experiment: 125I-CCL17 binding, human cells; conditions: buffer
[4] = Plasma compound concentrations at trough in the KCM study; format: in vivo, mice; conditions: day 12, KCM model

Sequence of CCR5 (P51681 whole entry, species assumed): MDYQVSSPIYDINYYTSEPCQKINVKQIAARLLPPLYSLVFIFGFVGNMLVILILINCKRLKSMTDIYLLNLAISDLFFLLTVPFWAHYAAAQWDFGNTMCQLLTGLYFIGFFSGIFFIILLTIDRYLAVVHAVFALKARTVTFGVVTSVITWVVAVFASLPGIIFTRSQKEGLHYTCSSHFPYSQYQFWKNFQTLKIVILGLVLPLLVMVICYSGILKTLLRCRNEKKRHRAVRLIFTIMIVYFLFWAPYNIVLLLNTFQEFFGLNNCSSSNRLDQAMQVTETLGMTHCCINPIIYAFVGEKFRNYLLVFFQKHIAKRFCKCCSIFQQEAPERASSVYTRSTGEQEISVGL
Sequence of CCR2 (P41597 whole entry, species assumed): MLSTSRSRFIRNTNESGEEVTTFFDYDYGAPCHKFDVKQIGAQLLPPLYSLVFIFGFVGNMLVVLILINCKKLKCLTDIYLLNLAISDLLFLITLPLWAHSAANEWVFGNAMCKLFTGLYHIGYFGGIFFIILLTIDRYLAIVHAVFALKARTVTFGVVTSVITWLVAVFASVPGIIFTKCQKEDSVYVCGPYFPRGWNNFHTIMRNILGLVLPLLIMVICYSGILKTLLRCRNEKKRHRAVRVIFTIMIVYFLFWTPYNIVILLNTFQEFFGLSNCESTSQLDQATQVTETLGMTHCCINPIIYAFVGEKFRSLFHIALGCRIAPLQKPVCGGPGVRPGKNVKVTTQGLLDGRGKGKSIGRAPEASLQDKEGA
Sequence of CCR8 (P51685 whole entry, species assumed): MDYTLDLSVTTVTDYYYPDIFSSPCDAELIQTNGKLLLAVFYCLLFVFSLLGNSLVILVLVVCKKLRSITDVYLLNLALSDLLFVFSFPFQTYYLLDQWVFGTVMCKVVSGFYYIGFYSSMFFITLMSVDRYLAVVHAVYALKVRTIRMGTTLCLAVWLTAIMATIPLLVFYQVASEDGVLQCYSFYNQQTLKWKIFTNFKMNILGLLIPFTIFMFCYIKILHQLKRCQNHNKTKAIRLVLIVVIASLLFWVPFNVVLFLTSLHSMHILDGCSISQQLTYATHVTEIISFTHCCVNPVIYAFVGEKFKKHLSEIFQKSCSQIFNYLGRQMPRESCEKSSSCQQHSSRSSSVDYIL

- IC50 (CCR4 [1]; Receptor CCR4, buffer): 0.002 µM
- Selectivity against a diverse panel of receptors, enzymes, and ion channels (CCR4 [1]; in words): highly specific for CCR4
- IC50 (CCR5): > 10 µM
- IC50 (CCR2): > 10 µM
- IC50 (CCR9): > 10 µM
- IC50 (CCR8): > 10 µM
- IC50 [2]: > 10 µM
- IC50 (CCR10): > 10 µM
- IC50 (CCR6): > 10 µM
- IC50 (CXCR2): > 10 µM
- Chemotaxis A2 (mCCR4; 100% serum): 60 nM
- Chemotaxis A2 (mCCR4; buffer): 4 nM
- IC50 (CCR4 [3]; Human CEM cells): 0.023 µM
- IC50 (CCR4 [3]; Human lymphocytes): 0.037 µM
- Plasma compound concentrations at trough [4]: Adequate compound levels
Structure (SMILES): C[C@@H](Nc1cc(C2CCN([C@H]3CCCN(CCC(=O)O)C3)CC2)ccc1Cl)c1ccc(Cl)cc1Cl [Compound 1]
